The values below come from patent US5965575A, “N-aryl piperidine compounds as 5HT1B antagonists” (Adir Et Compagnie, priority 1997, dated 1999).

In one assay the target is T1, 5-HT1A receptor (Rattus norvegicus, UniProt P19327).
T1 construct: from tissue
T1 sequence (P19327 1-422): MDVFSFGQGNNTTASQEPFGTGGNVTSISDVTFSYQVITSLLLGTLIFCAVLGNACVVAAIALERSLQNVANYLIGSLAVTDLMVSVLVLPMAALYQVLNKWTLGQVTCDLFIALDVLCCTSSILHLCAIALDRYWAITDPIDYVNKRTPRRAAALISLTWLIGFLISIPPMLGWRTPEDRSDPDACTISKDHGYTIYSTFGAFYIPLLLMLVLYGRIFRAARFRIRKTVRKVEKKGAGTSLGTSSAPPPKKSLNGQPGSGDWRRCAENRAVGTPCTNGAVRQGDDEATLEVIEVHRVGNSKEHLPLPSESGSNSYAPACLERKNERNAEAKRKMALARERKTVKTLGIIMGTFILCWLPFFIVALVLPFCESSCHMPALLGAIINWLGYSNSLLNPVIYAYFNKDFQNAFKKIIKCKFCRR
Briefly: 5-HT1A binding. As to the method: The 5-HT1A receptor binding studies were carried out according to methods known and described in the literature (cf. S. J. Peroutka, J. Neurochem, 1986, 47, 529-40, M. J. Millan, J. Pharmacol. Exp. Ther., 1994, 268, 337-52). The results are also expressed as pKi.

A further assay concerns the target T2, 5-HT1B receptor (Cavia porcellus, UniProt O08892).
T2 construct: After dissection of guinea-pig brains, the extracted striata are frozen; from tissue; host or cells: guinea-pig striatum membranes
Briefly: 5-HT1B binding ([3H]-GR 125743, guinea-pig striatal membranes). The note with it: [3H]-GR 125743 1 nM, guinea-pig striata membranes. On the procedure:
After dissection of guinea-pig brains, the extracted striata are frozen and then homogenised in 20 volumes (weight/volume) of 50 mM tris-HCl (pH 7.7 at room temperature) containing 4 mM CaCl2 and 0.1% ascorbic acid, and centrifuged at 48,000 g for 25 minutes at 4° C. The supernatant is separated and the precipitate is resuspended in the same volume of buffer before being incubated at 37° C. for 15 minutes in order to extract the endogenous serotonin. Finally, the suspension is centrifuged at 48,000 g for 25 minutes at 4° C. and the precipitate is resuspended in 80 volumes of buffer containing 10 μM pargyline.
The binding studies ([^3 H]-GR 125743) are carried out in triplicate in the following buffer: 50 mM tris-HCl (pH 7.7 at room temperature) containing 4 mM CaCl2, 0.1% ascorbic acid and 10 μM pargyline. […]
The data are analysed by non-linear regression using the PRISM programme (Graphpad Software Inc., San Diego, Calif.) in order to determine the Kd values (dissociation constant of the radioligand), the Bmax values (maximum number of sites) for the saturation experiments and the IC50 values (50% inhibiting concentration) and the Hill number for the competition experiments. The inhibition constant (Ki) is calculated according to the Cheng-Prussof equation : Ki =IC50 /1+L/Kd wherein L represents the concentration of the radioligand. The results are expressed as pKi =-log Ki.

A further assay concerns 5-HT1B. In words: Hypothermia test in the guinea-pig (antagonism of GR46611). Type of assay: in vivo. As to conditions: for ΔT ° C. (90 min) / ΔT ° C. (120 min): mean ± s.e.m. From the text:
Using the hypothermia test on the guinea-pig (M. Stingle et al., J. of Psychopharmacology, 1994, 8, 14) it was possible to determine the agonist or antagonist nature of the products of the invention.
The guinea-pigs are kept in batteries of three, with free access to food and water, for one week before entering the study. One hour before each experiment, the guinea-pigs are placed in individual cages with free access to water. They are put back in their respective batteries at the end of each experiment. The temperature measurements are carried out using a digital thermometer and a rectal probe. Each guinea-pig is weighed, its base body temperature is taken and then the compound of the present invention to be evaluated is injected i.p. or p.o.
In the case of an agonist, the body temperature of each guinea-pig is taken every 30 minutes for 2 hours.
In the case of an antagonist, 15 minutes after injection each guinea-pig is injected again i.p. with the prototype agonist 5-HT1B : GR46611 (5 mg/kg/ml). The temperature is then taken every 30 minutes for 2 hours.
The criterion used for evaluation is the difference in temperature at a given time in relation to the base temperature. For each dose of product and for each time (t30, t60, t90, t120) the mean and the standard error of the mean are calculated.

Assay [1] has as its system extracellular concentration of serotonin. In words: Microdialysis experiment in rats (frontal cortex). As to conditions: rat frontal cortex dialysate, subcutaneous route, compound alone. Type of assay: in vivo. From the text:
Those tests, carried out in the frontal cortex, make it possible in the case where the products cause an increase in the release of serotonin to envisage their use for depression, impulsive disorders and obesity. If they cause a decrease in the release of serotonin they will be beneficial in the treatment of anxiety, panic attacks, sleep problems, cognitive problems and drug abuse. Finally, if they produce an increase in dopamine and/or noradrenalin, they will be beneficial in the treatment of schizophrenia and, as above, in the treatment of depression and cognitive problems.
The rats are anaesthetised with pentobarbital (60 mg/kg i.p.). […]
Simultaneous quantification of dopamine, norepinephrine and serotonin is carried out as follows: 20 μl of dialysis samples are diluted with 20 μl of mobile phase (NaH2 PO4 : 75 mM, EDTA: 20 μM, sodium dodecanesulphonate: 1 mM, methanol: 17.5%, triethylamine: 0.01%, pH: 5.70) and 33 μl are analysed by HPLC with an inverse phase column (Hypersil ODS 5 μm, C18, 150×4.6 mm, Thermo Separation Products, Les Ulis, France) thermo-statically controlled at 45° C. and quantified by way of a coulometric detector. […] The quantities of neurotransmitters are expressed as a function of the mean of the three base values. […]

Setting [2] is: 0.04 mg/kg i.p., then GR46611 5 mg/kg.
Setting [3] is: 0.16 mg/kg i.p., then GR46611 5 mg/kg.
[4] abbreviates: injection 1 Vehicle i.p., injection 2 GR46611 5 mg/kg.

T2 sequence (O08892 whole entry): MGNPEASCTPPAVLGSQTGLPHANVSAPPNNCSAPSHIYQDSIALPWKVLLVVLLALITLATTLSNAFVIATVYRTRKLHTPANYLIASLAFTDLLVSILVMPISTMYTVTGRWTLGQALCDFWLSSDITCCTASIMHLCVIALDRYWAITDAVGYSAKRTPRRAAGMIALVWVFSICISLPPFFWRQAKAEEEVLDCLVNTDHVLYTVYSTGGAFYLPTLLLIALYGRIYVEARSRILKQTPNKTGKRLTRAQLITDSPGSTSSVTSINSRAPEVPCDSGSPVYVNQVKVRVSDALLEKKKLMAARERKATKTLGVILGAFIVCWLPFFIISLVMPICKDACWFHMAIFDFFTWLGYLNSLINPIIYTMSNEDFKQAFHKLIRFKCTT

On to `c1ccc2c(c1)CC2CNC1CCN(c2cccc3c2OCCO3)CC1` (stereo not shown) [Example 4, N-(benzocyclobuten-1-ylmethyl)-N-[1-(2,3-dihydro[1,4]benzodioxin-5-yl)piperid-4-yl]amine], for which the Ki on 5-HT1A receptor is 3.16 µM.
The molecule `c1cc2c(c(N3CCC(NCCC45CC6CC(CC(C6)C4)C5)CC3)c1)OCCO2` [Example 9, N-[2-(adamant-1-yl)ethyl]-N-[1-(2,3-dihydro[1,4]benzodioxin-5-yl)-piperid-4-yl]amine] had a Ki on 5-HT1B receptor of 0.01 µM.
As for `COc1cc2c(cc1OC)-c1cc(CCNC3CCN(c4cccc5c4OCCO5)CC3)cn1CC2` [Example 11, 5,6-dihydro-8,9-dimethoxy-2-{2-{[1-(2,3-dihydro[1,4]benzodioxin-5-yl)-piperid-4-ylamino]ethyl}}pyrrolo[2,1-a]isoquinoline], in the assay on 5-HT1B (setting [2]), the “ΔT ° C. (90 min)” value was -1.10 ± 0.36 °C and the “ΔT ° C. (120 min)” value was -1.43 ± 0.24 °C. In the assay on 5-HT1B (setting [3]), the “ΔT ° C. (90 min)” value is -0.57 ± 0.17 °C and the “ΔT ° C. (120 min)” value was -0.67 ± 0.28 °C. The “agonist or antagonist nature” value with 5-HT1B (hypothermia test, i.p. route) is on record as “acts as an antagonist”.
In the case of `COc1ccc(CNC(=O)/C=C/c2ccc3[nH]cc(CCN(C)C)c3c2)cc1` [GR46611, reference compound], the “extracellular concentration of serotonin” value in assay [1] is “decrease in the extracellular concentration of serotonin”. Also, in the assay on 5-HT1B (setting [4]), the “ΔT ° C. (90 min)” value is -1.05 ± 0.13 °C and the “ΔT ° C. (120 min)” value was -1.40 ± 0.36 °C.
